From US20110152313A1 (MACQUARIE UNIVERSITY, priority 2008, published 2011) come the findings set out here.

SMILES strings stand for the structures.

Holding throughout (test): kinase binding screen (kinase-tagged T7 phage, qPCR), % Ctrl
On the technique in general: Real-time PCR tracks product formation cycle by cycle.

In one experiment the target is CAMK1G (Homo sapiens, UniProt Q96NX5). In a few lines:
(§1)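 Competition binding: kinase-tagged T7 phage (grown in BL21-derived E. coli, lysed at 32° C) incubated with immobilized ligand on biotin-blocked beads plus test compound; bound kinase in eluates quantified by qPCR. Compounds tested at a single set concentration, added from 40× DMSO stocks.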

A further experiment has as its target T1, CDKL5 (Homo sapiens, UniProt O76039).
T1 sequence (O76039 1-960): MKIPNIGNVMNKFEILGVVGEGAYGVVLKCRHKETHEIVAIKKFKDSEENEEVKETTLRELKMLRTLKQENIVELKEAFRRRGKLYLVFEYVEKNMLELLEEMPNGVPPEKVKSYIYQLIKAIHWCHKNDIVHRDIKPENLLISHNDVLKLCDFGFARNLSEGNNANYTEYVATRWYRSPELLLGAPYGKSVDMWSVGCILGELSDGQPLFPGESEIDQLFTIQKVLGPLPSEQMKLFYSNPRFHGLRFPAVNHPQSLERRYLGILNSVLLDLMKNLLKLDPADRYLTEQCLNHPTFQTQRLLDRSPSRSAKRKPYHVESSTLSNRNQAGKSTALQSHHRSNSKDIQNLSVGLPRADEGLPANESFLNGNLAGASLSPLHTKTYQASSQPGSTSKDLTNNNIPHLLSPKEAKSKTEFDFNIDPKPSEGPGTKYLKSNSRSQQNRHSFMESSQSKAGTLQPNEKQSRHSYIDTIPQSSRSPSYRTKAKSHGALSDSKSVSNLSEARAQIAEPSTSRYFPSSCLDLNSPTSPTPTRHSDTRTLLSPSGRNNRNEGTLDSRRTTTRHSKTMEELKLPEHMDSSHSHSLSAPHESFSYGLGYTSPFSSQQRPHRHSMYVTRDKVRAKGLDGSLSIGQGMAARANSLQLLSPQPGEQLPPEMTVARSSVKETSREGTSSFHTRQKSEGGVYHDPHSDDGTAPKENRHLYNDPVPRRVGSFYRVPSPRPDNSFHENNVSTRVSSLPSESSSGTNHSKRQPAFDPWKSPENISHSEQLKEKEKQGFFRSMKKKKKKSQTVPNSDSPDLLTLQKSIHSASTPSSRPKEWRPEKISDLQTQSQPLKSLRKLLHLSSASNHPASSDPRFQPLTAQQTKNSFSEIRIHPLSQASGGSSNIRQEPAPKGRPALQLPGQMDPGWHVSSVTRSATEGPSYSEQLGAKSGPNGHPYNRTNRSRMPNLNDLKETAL
A digest of the protocol: as §1

Experiment [1] addresses RPS6KA2(Kin.Dom.2-C-terminal) (Homo sapiens, UniProt Q15349). A digest of the protocol:
as §1

Another experiment deals with T2, DYRK2 (Homo sapiens, UniProt Q92630).
T2 sequence (Q92630 1-601): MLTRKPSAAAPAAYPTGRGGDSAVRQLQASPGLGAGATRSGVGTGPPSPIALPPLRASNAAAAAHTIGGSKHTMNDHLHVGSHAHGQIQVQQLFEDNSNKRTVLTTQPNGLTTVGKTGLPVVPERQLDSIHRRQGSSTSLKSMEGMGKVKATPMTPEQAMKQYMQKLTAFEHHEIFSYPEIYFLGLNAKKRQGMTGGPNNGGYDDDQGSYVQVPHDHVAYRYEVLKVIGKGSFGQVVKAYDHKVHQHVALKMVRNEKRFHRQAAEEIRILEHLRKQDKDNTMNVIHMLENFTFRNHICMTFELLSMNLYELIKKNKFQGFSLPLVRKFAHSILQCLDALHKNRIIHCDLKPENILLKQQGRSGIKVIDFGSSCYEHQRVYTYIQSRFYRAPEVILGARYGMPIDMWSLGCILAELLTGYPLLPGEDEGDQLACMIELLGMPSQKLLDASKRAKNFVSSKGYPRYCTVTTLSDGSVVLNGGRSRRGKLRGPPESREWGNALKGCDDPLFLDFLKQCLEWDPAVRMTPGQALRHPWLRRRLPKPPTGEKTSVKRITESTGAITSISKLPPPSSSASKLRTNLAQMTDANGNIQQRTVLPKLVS
A digest of the protocol: as §1

A further experiment deals with CAMK2D (Homo sapiens, UniProt Q13557). A digest of the protocol:
as §1

In another experiment the target is CAMK2A (Homo sapiens, UniProt Q9UQM7). A digest of the protocol:
as §1

Chain of CAMK2A (Q9UQM7 whole entry): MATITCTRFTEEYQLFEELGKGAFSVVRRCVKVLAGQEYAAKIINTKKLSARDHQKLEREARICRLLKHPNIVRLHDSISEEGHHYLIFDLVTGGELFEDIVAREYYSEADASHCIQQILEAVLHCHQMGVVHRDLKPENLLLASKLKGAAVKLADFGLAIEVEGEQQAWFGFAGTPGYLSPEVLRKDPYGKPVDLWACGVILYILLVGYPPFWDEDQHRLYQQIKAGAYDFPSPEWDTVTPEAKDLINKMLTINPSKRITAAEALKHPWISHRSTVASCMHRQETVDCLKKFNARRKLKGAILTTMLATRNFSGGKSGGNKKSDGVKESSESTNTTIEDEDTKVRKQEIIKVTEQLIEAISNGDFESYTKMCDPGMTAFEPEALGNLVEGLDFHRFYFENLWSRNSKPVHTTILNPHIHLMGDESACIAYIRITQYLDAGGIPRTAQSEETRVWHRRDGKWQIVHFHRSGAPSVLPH
Chain of RPS6KA2(Kin.Dom.2-C-terminal) (Q15349 415-672 limits assumed, species assumed): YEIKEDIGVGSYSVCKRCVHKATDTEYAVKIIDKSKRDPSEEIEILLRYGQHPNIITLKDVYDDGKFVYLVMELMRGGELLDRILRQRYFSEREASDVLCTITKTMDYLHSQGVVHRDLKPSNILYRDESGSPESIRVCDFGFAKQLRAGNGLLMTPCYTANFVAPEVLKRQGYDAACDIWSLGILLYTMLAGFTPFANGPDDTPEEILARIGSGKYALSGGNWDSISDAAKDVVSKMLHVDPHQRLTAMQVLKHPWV
Chain of CAMK2D (Q13557 whole entry): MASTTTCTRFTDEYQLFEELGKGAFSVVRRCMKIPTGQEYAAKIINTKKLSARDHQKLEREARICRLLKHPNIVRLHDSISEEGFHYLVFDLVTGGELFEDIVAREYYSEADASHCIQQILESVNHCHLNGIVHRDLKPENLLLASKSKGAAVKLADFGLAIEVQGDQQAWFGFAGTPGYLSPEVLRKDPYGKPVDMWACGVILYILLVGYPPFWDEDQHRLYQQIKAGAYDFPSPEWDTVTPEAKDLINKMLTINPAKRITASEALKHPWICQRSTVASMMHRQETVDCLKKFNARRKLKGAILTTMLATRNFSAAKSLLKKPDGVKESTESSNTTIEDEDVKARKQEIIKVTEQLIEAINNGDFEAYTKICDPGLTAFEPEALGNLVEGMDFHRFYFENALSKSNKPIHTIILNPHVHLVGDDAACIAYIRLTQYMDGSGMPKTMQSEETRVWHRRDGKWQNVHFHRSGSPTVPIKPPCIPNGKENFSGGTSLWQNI
Chain of CAMK1G (Q96NX5 whole entry): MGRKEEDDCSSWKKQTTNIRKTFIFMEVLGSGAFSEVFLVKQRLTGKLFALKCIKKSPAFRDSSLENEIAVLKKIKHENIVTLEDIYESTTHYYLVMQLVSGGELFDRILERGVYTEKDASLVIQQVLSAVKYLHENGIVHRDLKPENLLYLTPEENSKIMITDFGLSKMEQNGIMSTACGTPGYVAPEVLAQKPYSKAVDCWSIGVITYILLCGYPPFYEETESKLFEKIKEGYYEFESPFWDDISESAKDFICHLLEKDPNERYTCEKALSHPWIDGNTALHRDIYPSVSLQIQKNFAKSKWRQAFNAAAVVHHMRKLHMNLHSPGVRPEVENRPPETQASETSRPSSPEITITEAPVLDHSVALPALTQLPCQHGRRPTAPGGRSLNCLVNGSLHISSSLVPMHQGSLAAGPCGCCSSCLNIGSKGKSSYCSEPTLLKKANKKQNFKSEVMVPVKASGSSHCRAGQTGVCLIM

On to `Nc1nc2c(-c3cc(Br)c(Br)[nH]3)nccc2[nH]1` [Ageladine A, ageladine A, reference compound], for which the remaining activity at 1 µM is 100% on CAMK1G; 54% at CDKL5; 42% in experiment [1]; 35% at DYRK2; 100% on CAMK2D; 100% on CAMK2A. Also, the remaining activity at 10 µM on CAMK1G (10 μM) was found to be 96%; at CDKL5 (10 μM) it was 40%; in experiment [1] (10 μM), 25%; at DYRK2 (10 μM), 4.4%; on CAMK2D (10 μM), 82%; at CAMK2A (10 μM), 97%.
Consider `Nc1nc2c(-c3ccccn3)nccc2[nH]1` [drawing 35, 4-(pyrid-2-yl)-1H-imidazo[4,5-c]pyridin-2-amine], for which the remaining activity at 1 µM amounted to 43% at CAMK1G; 50% on CDKL5; 68% in experiment [1]; 41% on DYRK2; 41% at CAMK2D; 100% at CAMK2A.
Consider `Nc1nc2c(-c3cnc4ccccc4c3)nccc2[nH]1` [drawing 36, 4-(quinolin-3-yl)-1H-imidazo[4,5-c]pyridin-2-amine], for which the remaining activity at 1 µM on CAMK1G is 100%; at CDKL5, 54%; in experiment [1], 100%; on DYRK2, 56%; at CAMK2D it was 100%; at CAMK2A, 100%.

For orientation: remaining activity means the signal under treatment as a percentage of the control signal. A lower remaining activity goes with a large loss of activity.
